Reference: ChEMBL document CHEMBL1136041, “Capped dipeptide alpha-ketoacid inhibitors of the HCV NS3 protease” (Bioorg Med Chem Lett, 2002)

biological target: Hepatitis C virus serine protease, NS3/NS4A (Hepatitis C virus, UniProt A3EZI9+D2K2A8); test: Inhibitory concentration evaluated against NS3/4A protease.; type: protein-complex assay, Hepacivirus hominis
Sequence (D2K2A8 whole entry): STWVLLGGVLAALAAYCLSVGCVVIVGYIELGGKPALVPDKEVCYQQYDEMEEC
Sequence (A3EZI9 whole entry): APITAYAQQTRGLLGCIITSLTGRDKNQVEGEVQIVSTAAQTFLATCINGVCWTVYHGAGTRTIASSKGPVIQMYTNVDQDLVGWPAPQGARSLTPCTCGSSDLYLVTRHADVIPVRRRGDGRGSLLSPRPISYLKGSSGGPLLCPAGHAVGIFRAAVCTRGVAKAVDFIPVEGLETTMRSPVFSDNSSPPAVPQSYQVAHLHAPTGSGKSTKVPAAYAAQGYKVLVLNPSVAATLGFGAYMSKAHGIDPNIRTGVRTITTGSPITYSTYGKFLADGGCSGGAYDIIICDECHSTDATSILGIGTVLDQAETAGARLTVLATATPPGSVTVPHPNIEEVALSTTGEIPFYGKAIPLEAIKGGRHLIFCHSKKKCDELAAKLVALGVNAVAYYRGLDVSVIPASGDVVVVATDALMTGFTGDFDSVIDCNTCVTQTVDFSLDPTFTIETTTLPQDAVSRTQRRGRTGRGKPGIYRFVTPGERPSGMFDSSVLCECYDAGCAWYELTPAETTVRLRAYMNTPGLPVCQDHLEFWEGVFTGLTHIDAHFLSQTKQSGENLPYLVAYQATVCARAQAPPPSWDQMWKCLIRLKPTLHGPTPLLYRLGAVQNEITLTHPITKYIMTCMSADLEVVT

IC50	SMILES
> 200 µM	CC(C)C[C@H](NC(=O)Cn1nc(-c2ccccc2)c2ccccc2c1=O)C(=O)N[C@@H](CC(F)F)C(=O)C(=O)O
> 200 µM	CC(C)C[C@H](NC(=O)CC(c1ccccc1)c1ccccc1)C(=O)N[C@@H](CC(F)F)C(=O)C(=O)O
13 µM	CC(C)C[C@H](NC(=O)[C@H](O)c1ccc(Cl)cc1)C(=O)N[C@@H](CC(F)F)C(=O)C(=O)O
18 µM	CC(C)C[C@H](NC(=O)[C@H](O)c1cccs1)C(=O)N[C@@H](CC(F)F)C(=O)C(=O)O
> 30 µM	CC(C)C[C@H](NC(=O)C(Cc1ccccc1)c1ccccc1)C(=O)N[C@@H](CC(F)F)C(=O)C(=O)O (some centres not stated)
> 100 µM	CC(C)C[C@H](NC(=O)[C@@H](O)c1ccccc1)C(=O)N[C@@H](CC(F)F)C(=O)C(=O)O
7 µM	CC(C)C[C@H](NC(=O)[C@H](O)C1CCCCC1)C(=O)N[C@@H](CC(F)F)C(=O)C(=O)O
3 µM	CC(C)C[C@H](NC(=O)[C@H](O)c1ccccc1)C(=O)N[C@@H](CC(F)F)C(=O)C(=O)O

The next lines start with the compound.

SMILES	IC50
CC(C)C[C@H](NC(=O)Cn1c(-c2ccccc2)nc2ccccc21)C(=O)N[C@@H](CC(F)F)C(=O)C(=O)O	> 200 µM
CC(C)C[C@H](NC(=O)[C@H](O)c1ccccc1Cl)C(=O)N[C@@H](CC(F)F)C(=O)C(=O)O	41 µM
CC(C)C[C@H](NC(=O)C(Sc1ccccc1)c1ccccc1)C(=O)N[C@@H](CC(F)F)C(=O)C(=O)O (some centres not stated)	7 µM
COc1ccc(C(=O)N[C@@H](CC(C)C)C(=O)N[C@@H](CC(F)F)C(=O)C(=O)O)c(OC)c1OC	> 200 µM
COc1ccc(C(Oc2ccccc2)C(=O)N[C@@H](CC(C)C)C(=O)N[C@@H](CC(F)F)C(=O)C(=O)O)cc1 (some centres not stated)	18 µM
CC(C)C[C@H](NC(=O)[C@@H](NC(=O)OC(C)(C)C)C1CCCC1)C(=O)N[C@@H](CC(F)F)C(=O)C(=O)O	0.38 µM
CC(C)C[C@H](NC(=O)[C@H](O)c1ccc(C(F)(F)F)cc1)C(=O)N[C@@H](CC(F)F)C(=O)C(=O)O	28 µM
COc1ccc([C@@H](O)C(=O)N[C@@H](CC(C)C)C(=O)N[C@@H](CC(F)F)C(=O)C(=O)O)cc1	13 µM
CC(C)C[C@H](NC(=O)c1cccc(Oc2ccccc2)c1)C(=O)N[C@@H](CC(F)F)C(=O)C(=O)O	> 200 µM
